Experimental data taken from publication PMC5218480 (PLoS ONE, 2017).

System: MV-4-11 cells
Assay: Gene expression microarray analysis (Affymetrix PrimeView) and GSEA
Assay type: cell-based, human
Set-up: RFU PODN (11730768_x_at) / Fold change /veh PODN (11730768_x_at) / RFU LINC00158 (11744669_a_at) / Fold change /veh LINC00158 (11744669_a_at) / RFU DUSP10 (11751237_a_at) / Fold change /veh DUSP10 (11751237_a_at) / RFU ID3 (11757404_x_at) / Fold change /veh ID3 (11757404_x_at) / RFU PLEKHG5 (11737974_s_at) / Fold change /veh PLEKHG5 (11737974_s_at) / RFU LRRC4B (11730491_at) / Fold change /veh LRRC4B (11730491_at) / RFU GIMAP4 (11747438_a_at) / Fold change /veh GIMAP4 (11747438_a_at) / RFU KRT8 (11758183_x_at) / Fold change /veh KRT8 (11758183_x_at) / RFU CNN1 (11734310_a_at) / Fold change /veh CNN1 (11734310_a_at) / RFU VPS37D (11726825_at) / Fold change /veh VPS37D (11726825_at) / RFU C10orf10 (11716522_x_at) / Fold change /veh C10orf10 (11716522_x_at) / RFU KIR2DL2 /// KIR2DL4 /// KIR2DL5A /// KIR2DL5B /// KIR2DS1 /// KIR2DS2 /// KIR2DS3 /// KIR2DS4 /// KIR3DL3 /// KIR3DL3 /// KIR3DS1 (11738374_at) / Fold change /veh KIR2DL2 /// KIR2DL4 /// KIR2DL5A /// KIR2DL5B /// KIR2DS1 /// KIR2DS2 /// KIR2DS3 /// KIR2DS4 /// KIR3DL3 /// KIR3DL3 /// KIR3DS1 (11738374_at) / RFU C1QL1 (11718748_at) / Fold change /veh C1QL1 (11718748_at) / RFU TMPRSS4 (11747572_a_at) / Fold change /veh TMPRSS4 (11747572_a_at) / RFU HAMP (11756126_x_at) / Fold change /veh HAMP (11756126_x_at) / RFU RNFT2 (11725882_a_at) / Fold change /veh RNFT2 (11725882_a_at) / RFU NR4A2 (11747474_a_at) / Fold change /veh NR4A2 (11747474_a_at) / RFU ABCC12 (11746883_a_at) / Fold change /veh ABCC12 (11746883_a_at) / RFU TMEM136 (11760407_x_at) / Fold change /veh TMEM136 (11760407_x_at) / RFU CLDN22 /// WWC2 (11732394_at) / Fold change /veh CLDN22 /// WWC2 (11732394_at) / RFU HLA-DPB1 (11760878_x_at) / Fold change /veh HLA-DPB1 (11760878_x_at) / RFU SPINT1 (11716480_a_at) / Fold change /veh SPINT1 (11716480_a_at) / RFU GAP43 (11754022_s_at) / Fold change /veh GAP43 (11754022_s_at) / RFU A4GNT (11735810_at) / Fold change /veh A4GNT (11735810_at) / RFU PRB3 (11715151_x_at) / Fold change /veh PRB3 (11715151_x_at) / RFU TUBB4B (11761932_at) / Fold change /veh TUBB4B (11761932_at) / RFU CAPN14 (11732068_a_at) / Fold change /veh CAPN14 (11732068_a_at) / RFU TMCC2 (11721928_a_at) / Fold change /veh TMCC2 (11721928_a_at) / RFU IRGQ (11745062_a_at) / Fold change /veh IRGQ (11745062_a_at) / RFU FAM174B (11720279_a_at) / Fold change /veh FAM174B (11720279_a_at) / RFU TMPRSS4 (11748680_a_at) / Fold change /veh TMPRSS4 (11748680_a_at) / RFU FAM212B (11763350_a_at) / Fold change /veh FAM212B (11763350_a_at) / RFU PLEKHG5 (11743358_a_at) / Fold change /veh PLEKHG5 (11743358_a_at) / RFU ZSCAN30 (11745921_a_at) / Fold change /veh ZSCAN30 (11745921_a_at) / RFU CMKLR1 (11741424_a_at) / Fold change /veh CMKLR1 (11741424_a_at) / RFU LOC101060620 /// MAPK8IP1 (11723275_at) / Fold change /veh LOC101060620 /// MAPK8IP1 (11723275_at) / RFU SPTSSB (11747773_x_at) / Fold change /veh SPTSSB (11747773_x_at) / RFU PRSS12 (11739890_at) / Fold change /veh PRSS12 (11739890_at) / RFU BIN1 (11741810_x_at) / Fold change /veh BIN1 (11741810_x_at) / RFU WNT11 (11732464_a_at) / Fold change /veh WNT11 (11732464_a_at) / RFU C10orf10 (11716521_a_at) / Fold change /veh C10orf10 (11716521_a_at) / RFU C5orf56 (11738089_at) / Fold change /veh C5orf56 (11738089_at) / RFU CYB561 (11721691_x_at) / Fold change /veh CYB561 (11721691_x_at) / RFU ANKRD19P (11752326_a_at) / Fold change /veh ANKRD19P (11752326_a_at) / RFU OR2T12 /// OR2T33 /// OR2T8 (11738714_s_at) / Fold change /veh OR2T12 /// OR2T33 /// OR2T8 (11738714_s_at) / RFU VCAN (11748164_a_at) / Fold change /veh VCAN (11748164_a_at) / RFU JSRP1 (11732532_at) / Fold change /veh JSRP1 (11732532_at) / RFU KRTAP10-11 (11738290_x_at) / Fold change /veh KRTAP10-11 (11738290_x_at) / RFU MYO3A (11730013_a_at) / Fold change /veh MYO3A (11730013_a_at) / RFU EBF3 (11725865_a_at) / Fold change /veh EBF3 (11725865_a_at) / RFU CAMK2N1 (11719241_x_at) / Fold change /veh CAMK2N1 (11719241_x_at) / RFU C5orf56 (11738088_a_at) / Fold change /veh C5orf56 (11738088_a_at) / RFU OLFML3 (11715873_a_at) / Fold change /veh OLFML3 (11715873_a_at) / RFU LOC100653217 /// NTM (11731650_a_at) / Fold change /veh LOC100653217 /// NTM (11731650_a_at) / RFU MAPK11 (11762145_a_at) / Fold change /veh MAPK11 (11762145_a_at) / RFU FIZ1 (11724087_x_at) / Fold change /veh FIZ1 (11724087_x_at) / RFU OASL (11726364_x_at) / Fold change /veh OASL (11726364_x_at) / RFU SOX15 (11748057_x_at) / Fold change /veh SOX15 (11748057_x_at) / RFU CD79A (11719716_a_at) / Fold change /veh CD79A (11719716_a_at) / RFU HIST1H1D (11736915_at) / Fold change /veh HIST1H1D (11736915_at) / RFU CASKIN2 (11723855_a_at) / Fold change /veh CASKIN2 (11723855_a_at) / RFU LOC730098 (11760151_x_at) / Fold change /veh LOC730098 (11760151_x_at) / RFU OR4N2 (11742367_at) / Fold change /veh OR4N2 (11742367_at) / RFU PRRT2 (11749266_a_at) / Fold change /veh PRRT2 (11749266_a_at) / RFU SNX32 (11753110_a_at) / Fold change /veh SNX32 (11753110_a_at) / RFU CDHR5 (11726645_a_at) / Fold change /veh CDHR5 (11726645_a_at) / RFU RCAN1 (11760418_a_at) / Fold change /veh RCAN1 (11760418_a_at) / RFU FAM167A (11723789_a_at) / Fold change /veh FAM167A (11723789_a_at) / RFU FAM26E (11764081_at) / Fold change /veh FAM26E (11764081_at) / RFU ISYNA1 (11749810_s_at) / Fold change /veh ISYNA1 (11749810_s_at) / RFU ACY1 (11761880_at) / Fold change /veh ACY1 (11761880_at) / RFU 11764098_at / Fold change /veh 11764098_at / RFU SAMD14 (11745864_x_at) / Fold change /veh SAMD14 (11745864_x_at) / RFU NPB (11741838_a_at) / Fold change /veh NPB (11741838_a_at) / RFU TMPRSS6 (11731388_a_at) / Fold change /veh TMPRSS6 (11731388_a_at) / RFU KRTAP10-2 (11738614_at) / Fold change /veh KRTAP10-2 (11738614_at) / RFU ARHGAP8 /// PRR5-ARHGAP8 (11727945_x_at) / Fold change /veh ARHGAP8 /// PRR5-ARHGAP8 (11727945_x_at) / RFU KRTAP5-7 /// NADSYN1 (11734609_at) / Fold change /veh KRTAP5-7 /// NADSYN1 (11734609_at) / RFU RASL12 (11751679_a_at) / Fold change /veh RASL12 (11751679_a_at) / RFU CDKN2B (11736163_a_at) / Fold change /veh CDKN2B (11736163_a_at) / RFU PRF1 (11729649_at) / Fold change /veh PRF1 (11729649_at) / RFU, ZNF638 /// ZNF638-IT1 / Fold change vs veh, ZNF638 /// ZNF638-IT1 / RFU, PANK3 / Fold change vs veh, PANK3 / RFU, SH3YL1 / Fold change vs veh, SH3YL1 / RFU, ZEB2 / Fold change vs veh, ZEB2 / RFU, NRIP1 / Fold change vs veh, NRIP1 / RFU, PTTG1IP / Fold change vs veh, PTTG1IP / RFU, CAPN2 / Fold change vs veh, CAPN2 / RFU, MED14 / Fold change vs veh, MED14 / RFU, SNORA58 / Fold change vs veh, SNORA58 / RFU, C1orf63 / Fold change vs veh, C1orf63 / RFU, LRRFIP1 / Fold change vs veh, LRRFIP1 / RFU, NDUFAF7 / Fold change vs veh, NDUFAF7 / RFU, SLC12A2 / Fold change vs veh, SLC12A2 / RFU, IBTK / Fold change vs veh, IBTK / RFU, ESF1 / Fold change vs veh, ESF1 / Fold change vs veh, TMEM50B / RFU, TAOK1 / Fold change vs veh, TAOK1 / RFU, ACBD3 / Fold change vs veh, ACBD3 / RFU, TMA16 / Fold change vs veh, TMA16 / RFU, RWDD3 / Fold change vs veh, RWDD3 / RFU, BCAT1 / Fold change vs veh, BCAT1 / RFU, EDEM3 / Fold change vs veh, EDEM3 / RFU, TMEM33 / Fold change vs veh, TMEM33 / RFU, WDR75 / Fold change vs veh, WDR75 / RFU, AHCTF1 / Fold change vs veh, AHCTF1 / RFU, TFRC / Fold change vs veh, TFRC / RFU, ZDHHC17 / Fold change vs veh, ZDHHC17 / RFU, NOM1 / Fold change vs veh, NOM1 / RFU, ARL8B / Fold change vs veh, ARL8B / RFU, ZBTB11 / Fold change vs veh, ZBTB11 / RFU, TAMM41 / Fold change vs veh, TAMM41 / RFU, KIAA1704 /// LOC100996395 / Fold change vs veh, KIAA1704 /// LOC100996395 / RFU, ING1 / Fold change vs veh, ING1 / RFU, TRMT61B / Fold change vs veh, TRMT61B / RFU, FUBP3 / Fold change vs veh, FUBP3 / RFU, TP53 / Fold change vs veh, TP53 / RFU, TNKS2 / Fold change vs veh, TNKS2 / RFU, ZFP14 / Fold change vs veh, ZFP14 / RFU, ACTR2 / Fold change vs veh, ACTR2 / RFU, PPP3R1 / Fold change vs veh, PPP3R1 / RFU, PIK3R1 / Fold change vs veh, PIK3R1 / RFU, HNRNPA1 / Fold change vs veh, HNRNPA1 / RFU, RNF170 / Fold change vs veh, RNF170 / RFU, ZNF28 / Fold change vs veh, ZNF28 / RFU, RNGTT / Fold change vs veh, RNGTT / RFU, OGT / Fold change vs veh, OGT / RFU, BRD1 / Fold change vs veh, BRD1 / RFU, MARS / Fold change vs veh, MARS / RFU, ZNF655 / Fold change vs veh, ZNF655 / RFU, FAHD1 / Fold change vs veh, FAHD1 / RFU, BDP1 / Fold change vs veh, BDP1 / RFU, LRRCC1 / Fold change vs veh, LRRCC1 / RFU, ARID1A / Fold change vs veh, ARID1A / RFU, ZNF146 / Fold change vs veh, ZNF146 / RFU, ZNF330 / Fold change vs veh, ZNF330 / RFU, GPN3 / Fold change vs veh, GPN3 / RFU, C9orf123 / Fold change vs veh, C9orf123 / RFU, N4BP2L2 / Fold change vs veh, N4BP2L2 / RFU, ARFIP1 / Fold change vs veh, ARFIP1 / RFU, FAM179B / Fold change vs veh, FAM179B / RFU, BCL10 / Fold change vs veh, BCL10 / RFU, UHRF1BP1L / Fold change vs veh, UHRF1BP1L / RFU, BET1 / Fold change vs veh, BET1 / RFU, CNOT2 / Fold change vs veh, CNOT2 / RFU, ZNF268 / Fold change vs veh, ZNF268 / Fold change vs veh, ZNF507 / RFU, DGCR2 / Fold change vs veh, DGCR2 / RFU, WDSUB1 / Fold change vs veh, WDSUB1 / Fold change vs veh, HSP90B1 /// MIR3652 / RFU, ADSS / Fold change vs veh, ADSS / RFU, GK / Fold change vs veh, GK / RFU, ZNF148 / Fold change vs veh, ZNF148 / RFU, TAF9 / Fold change vs veh, TAF9 / RFU, SLC1A5 / Fold change vs veh, SLC1A5 / RFU, SLMO2 / Fold change vs veh, SLMO2 / RFU, ABCC4 / Fold change vs veh, ABCC4 / RFU, LOC101060439 /// RAP1B / Fold change vs veh, LOC101060439 /// RAP1B / RFU, RFX7 / Fold change vs veh, RFX7 / RFU, GTPBP10 / Fold change vs veh, GTPBP10 / RFU, CNEP1R1 / Fold change vs veh, CNEP1R1 / RFU, BIVM-ERCC5 /// ERCC5 / Fold change vs veh, BIVM-ERCC5 /// ERCC5 / RFU, ILF3 / Fold change vs veh, ILF3 / RFU 11762660_at / Fold change /veh 11762660_at / RFU VCAN (11757783_s_at) / Fold change /veh VCAN (11757783_s_at) / RFU DDX43 (11728927_at) / Fold change /veh DDX43 (11728927_at) / RFU KRT8 (11758188_x_at) / Fold change /veh KRT8 (11758188_x_at) / RFU NKD1 (11759106_at) / Fold change /veh NKD1 (11759106_at) / RFU SRD5A1 (11742802_a_at) / Fold change /veh SRD5A1 (11742802_a_at) / RFU TPSAB1 /// TPSB2 (11721975_s_at) / Fold change /veh TPSAB1 /// TPSB2 (11721975_s_at) / RFU GSTM3 (11746129_a_at) / Fold change /veh GSTM3 (11746129_a_at) / RFU IL23R (11737362_x_at) / Fold change /veh IL23R (11737362_x_at) / RFU TMEM51 (11727254_a_at) / Fold change /veh TMEM51 (11727254_a_at) / RFU PIWIL2 (11732686_x_at) / Fold change /veh PIWIL2 (11732686_x_at) / RFU ORM1 (11744905_x_at) / Fold change /veh ORM1 (11744905_x_at) / RFU CCDC152 (11743942_at) / Fold change /veh CCDC152 (11743942_at) / RFU ECM1 (11717891_a_at) / Fold change /veh ECM1 (11717891_a_at) / RFU IL23R (11748794_a_at) / Fold change /veh IL23R (11748794_a_at) / RFU TNFAIP8L3 (11732012_x_at) / Fold change /veh TNFAIP8L3 (11732012_x_at) / RFU MBOAT4 (11741988_at) / Fold change /veh MBOAT4 (11741988_at) / RFU 11764193_at / Fold change /veh 11764193_at / RFU TMEM53 (11763286_at) / Fold change /veh TMEM53 (11763286_at) / RFU MAGEB2 (11727129_at) / Fold change /veh MAGEB2 (11727129_at) / RFU TMEM200A (11744735_a_at) / Fold change /veh TMEM200A (11744735_a_at) / RFU CCDC152 (11751479_a_at) / Fold change /veh CCDC152 (11751479_a_at) / RFU FAM211A (11726209_a_at) / Fold change /veh FAM211A (11726209_a_at) / RFU RGS16 (11746705_a_at) / Fold change /veh RGS16 (11746705_a_at) / RFU VCAN (11755009_s_at) / Fold change /veh VCAN (11755009_s_at) / RFU RHOB (11743442_s_at) / Fold change /veh RHOB (11743442_s_at) / RFU RGS16 (11720943_a_at) / Fold change /veh RGS16 (11720943_a_at) / RFU RGS16 (11720944_at) / Fold change /veh RGS16 (11720944_at) / RFU, VPS4B / Fold change vs veh, VPS4B / RFU, CREB1 / Fold change vs veh, CREB1 / RFU, DNAJC13 / Fold change vs veh, DNAJC13 / RFU, GNAQ / Fold change vs veh, GNAQ / RFU, CDK5R1 / Fold change vs veh, CDK5R1 / RFU, ZRANB3 / Fold change vs veh, ZRANB3 / RFU, CUL4A / Fold change vs veh, CUL4A / RFU, CCNY / Fold change vs veh, CCNY / RFU, UFL1 / Fold change vs veh, UFL1 / RFU, COG3 / Fold change vs veh, COG3 / RFU, DIAPH2 / Fold change vs veh, DIAPH2 / RFU, SKA2 / Fold change vs veh, SKA2 / RFU, AFF3 / Fold change vs veh, AFF3 / RFU, LMF1 / Fold change vs veh, LMF1 / RFU, IPO11 / Fold change vs veh, IPO11 / RFU, DFFB / Fold change vs veh, DFFB / RFU, FOXP1 / Fold change vs veh, FOXP1 / RFU, CARD8 / Fold change vs veh, CARD8 / RFU, STRN3 / Fold change vs veh, STRN3 / RFU, ADK / Fold change vs veh, ADK / RFU, RASSF2 / Fold change vs veh, RASSF2 / RFU, WIPF1 / Fold change vs veh, WIPF1 / RFU, LARP1B / Fold change vs veh, LARP1B / RFU, RASA1 / Fold change vs veh, RASA1 / RFU, RB1 / Fold change vs veh, RB1 / RFU, PPFIA1 / Fold change vs veh, PPFIA1 / RFU, MAT2A / Fold change vs veh, MAT2A / RFU, CCT5 / Fold change vs veh, CCT5 / RFU, WDR92 / Fold change vs veh, WDR92 / RFU, CUX1 / Fold change vs veh, CUX1 / RFU, TTC7A / Fold change vs veh, TTC7A / RFU, TMEM135 / Fold change vs veh, TMEM135 / RFU, DEPTOR / Fold change vs veh, DEPTOR / RFU, CPM / Fold change vs veh, CPM / RFU, DNAJB6 / Fold change vs veh, DNAJB6 / RFU, CACNA2D3 / Fold change vs veh, CACNA2D3 / RFU, DTX4 / Fold change vs veh, DTX4 / RFU, TFCP2 / Fold change vs veh, TFCP2 / RFU, GMCL1 /// GMCL1P1 / Fold change vs veh, GMCL1 /// GMCL1P1 / RFU, AEBP2 / Fold change vs veh, AEBP2 / RFU, SNHG1 /// SNORD22 /// SNORD25 /// SNORD26 /// SNORD27 /// SNORD28 /// SNORD29 /// SNORD31 / Fold change vs veh, SNHG1 /// SNORD22 /// SNORD25 /// SNORD26 /// SNORD27 /// SNORD28 /// SNORD29 /// SNORD31 / Fold change (Aza/veh), C12orf56 (ProbeSet 11735607_a_at) / Fold change (ACY-1035/veh), C12orf56 (ProbeSet 11735607_a_at) / Fold change (Aza/veh), FGFR1OP (ProbeSet 11751329_s_at) / Fold change (ACY-1035/veh), FGFR1OP (ProbeSet 11751329_s_at) / Fold change (Aza/veh), VPS36 (ProbeSet 11739960_a_at) / Fold change (ACY-1035/veh), VPS36 (ProbeSet 11739960_a_at) / RFU SYPL1 (11715823_x_at) / Fold change /veh SYPL1 (11715823_x_at) / RFU IGFBP7 (11715501_s_at) / Fold change /veh IGFBP7 (11715501_s_at) / RFU REEP3 (11722064_at) / Fold change /veh REEP3 (11722064_at) / RFU IGLL1 (11728026_x_at) / Fold change /veh IGLL1 (11728026_x_at): dose or concentration left out as unconfirmed
Conditions: ProbeSet 11741199_a_at; LIST B

Nc1ncn([C@@H]2O[C@H](CO)[C@@H](O)[C@H]2O)c(=O)n1 [azacitidine]
RFU, LRRCC1: 65.24 RFU
